Test results taken from ChEMBL document CHEMBL1201862, “PubChem BioAssay data set” (2004).
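48-hour exposure; five concentrations; linearly interpolated endpoints. The concentration for 50% growth inhibition is given as GI50.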 Calls of active or inactive are those of the source. Cut-off read from the data, not from the text of the source: active = GI50 up to about 1.1 µM and inactive = higher.

Tests used:
Assay in all cases: NCI tumour cell line growth inhibition, 48 h
UACC-62 = system: UACC-62
SK-OV-3 = system: SK-OV-3
HCC 2998 = system: HCC 2998
UO-31 = system: UO-31
MDA-N = system: MDA-N
SF-539 = system: SF-539
OVCAR-5 = system: OVCAR-5
SNB-75 = system: SNB-75
SK-MEL-2 = system: SK-MEL-2
SW-620 = system: SW-620
ACHN = system: ACHN
U-251 = system: U-251
LOX IMVI = system: LOX IMVI
PC-3 = system: PC-3
IGROV-1 = system: IGROV-1
HOP-62 = system: HOP-62
MDA-MB-435 = system: MDA-MB-435
Malme-3M = system: Malme-3M
NCI-H226 = system: NCI-H226

In the case of `c1csc(-c2cc(-c3ccsc3)cs2)c1`, the GI50 (UACC-62) is reported as > 100 µM (inactive), the GI50 (SK-OV-3) is reported as 33.8 µM (inactive) and the GI50 (HCC 2998) is reported as > 100 µM (inactive). The GI50 (UO-31) was 78.2 µM (inactive), the GI50 (MDA-N) was > 100 µM (inactive) and the GI50 (SF-539) was 35.4 µM (inactive). The GI50 (OVCAR-5) was 63.1 µM (inactive), the GI50 (SNB-75) was > 100 µM (inactive) and the GI50 (SK-MEL-2) was 98.6 µM (inactive). The GI50 (SW-620) was > 100 µM (inactive), the GI50 (ACHN) was > 100 µM (inactive) and the GI50 (U-251) was > 100 µM (inactive). The GI50 (LOX IMVI) was > 100 µM (inactive), the GI50 (PC-3) was > 100 µM (inactive) and the GI50 (IGROV-1) was 45.2 µM (inactive). The GI50 (HOP-62) was 29.9 µM (inactive) and the GI50 (MDA-MB-435) was > 100 µM (inactive).
In the case of `COC12C=CC(CC1)C(C)(C)C2OS(C)(=O)=O` (centres undefined), the GI50 (UACC-62) is reported as > 100 µM (inactive), the GI50 (SK-OV-3) is reported as > 100 µM (inactive) and the GI50 (HCC 2998) is reported as > 100 µM (inactive). The GI50 (UO-31) was > 100 µM (inactive), the GI50 (MDA-N) was > 100 µM (inactive) and the GI50 (SF-539) was > 100 µM (inactive). For the same molecule, the GI50 (OVCAR-5) was > 100 µM (inactive), the GI50 (SNB-75) was 38.3 µM (inactive) and the GI50 (SK-MEL-2) was > 100 µM (inactive). The GI50 (SW-620) was > 100 µM (inactive), the GI50 (ACHN) was > 100 µM (inactive) and the GI50 (U-251) was > 100 µM (inactive). The GI50 (Malme-3M) was > 100 µM (inactive), the GI50 (PC-3) was > 100 µM (inactive) and the GI50 (IGROV-1) was > 100 µM (inactive). For the same molecule, the GI50 (HOP-62) was > 100 µM (inactive), the GI50 (MDA-MB-435) was > 100 µM (inactive) and the GI50 (NCI-H226) was > 100 µM (inactive).
With `Cn1c2ccccc2n2c(N=O)c(-c3ccccc3)nc12` the GI50 (UACC-62) was 56.5 µM (inactive), the GI50 (SK-OV-3) was 67.3 µM (inactive) and the GI50 (HCC 2998) was 11.7 µM (inactive). For the same molecule, the GI50 (UO-31) was 32.5 µM (inactive), the GI50 (MDA-N) was 55.1 µM (inactive) and the GI50 (OVCAR-5) was 59.3 µM (inactive). For the same molecule, the GI50 (SNB-75) was 5.08 µM (inactive), the GI50 (SK-MEL-2) was 33.1 µM (inactive) and the GI50 (SW-620) was 72.8 µM (inactive). The GI50 (ACHN) was > 100 µM (inactive), the GI50 (U-251) was 49.8 µM (inactive) and the GI50 (Malme-3M) was 69.5 µM (inactive). The GI50 (LOX IMVI) was > 100 µM (inactive), the GI50 (PC-3) was 96.6 µM (inactive) and the GI50 (IGROV-1) was 25.5 µM (inactive). For the same molecule, the GI50 (HOP-62) was 5.52 µM (inactive) and the GI50 (MDA-MB-435) was 38.8 µM (inactive).
In the case of `CCCC(=O)OCC1OC(n2cc(F)c(=O)[nH]c2=O)CC1OC(=O)CCC` (centres undefined), the GI50 (UACC-62) is reported as 0.177 µM (active), the GI50 (SK-OV-3) is reported as > 2.93 µM (inactive) and the GI50 (HCC 2998) is reported as 0.0113 µM (active). The GI50 (UO-31) was 0.13 µM (active), the GI50 (MDA-N) was 1.25 µM (inactive) and the GI50 (SF-539) was 0.00511 µM (active). For the same molecule, the GI50 (OVCAR-5) was > 10 µM (inactive), the GI50 (SK-MEL-2) was > 10 µM (inactive) and the GI50 (SW-620) was > 10 µM (inactive). The GI50 (ACHN) was 0.0441 µM (active), the GI50 (U-251) was 3.26 µM (inactive) and the GI50 (Malme-3M) was > 6.43 µM (inactive). For the same molecule, the GI50 (LOX IMVI) was 0.0236 µM (active), the GI50 (PC-3) was 1.55 µM (inactive) and the GI50 (IGROV-1) was > 10 µM (inactive). The GI50 (HOP-62) was 0.0684 µM (active), the GI50 (MDA-MB-435) was 3.95 µM (inactive) and the GI50 (NCI-H226) was 5.53 µM (inactive).
For `Cc1ccsc1C(=S)Nc1ccc(Cl)c(C(=O)OC(C(C)C)C(C)C)c1`, the GI50 (UACC-62) was 21 µM (inactive), the GI50 (SK-OV-3) was 28.2 µM (inactive) and the GI50 (HCC 2998) was 16.1 µM (inactive). The GI50 (UO-31) was 13.1 µM (inactive), the GI50 (MDA-N) was 23.6 µM (inactive) and the GI50 (SF-539) was 39.6 µM (inactive). The GI50 (OVCAR-5) was 57.9 µM (inactive), the GI50 (SNB-75) was 24 µM (inactive) and the GI50 (SK-MEL-2) was 11.7 µM (inactive). The GI50 (SW-620) was 18.9 µM (inactive), the GI50 (ACHN) was 25.9 µM (inactive) and the GI50 (U-251) was 24.4 µM (inactive). The GI50 (LOX IMVI) was 18 µM (inactive), the GI50 (PC-3) was 8.53 µM (inactive) and the GI50 (IGROV-1) was 32.3 µM (inactive). The GI50 (MDA-MB-435) was 17.7 µM (inactive) and the GI50 (NCI-H226) was 29 µM (inactive).
`[N-]=[N+]=CC(=O)C1CCN(c2ccccc2)C1=O` (centres undefined) was tested, and the GI50 (UACC-62) was > 10 µM (inactive), the GI50 (SK-OV-3) was > 10 µM (inactive) and the GI50 (HCC 2998) was > 10 µM (inactive). The GI50 (UO-31) was > 10 µM (inactive), the GI50 (MDA-N) was > 10 µM (inactive) and the GI50 (SF-539) was > 10 µM (inactive). The GI50 (OVCAR-5) was > 10 µM (inactive), the GI50 (SK-MEL-2) was > 10 µM (inactive) and the GI50 (SW-620) was > 10 µM (inactive). For the same molecule, the GI50 (ACHN) was > 10 µM (inactive), the GI50 (U-251) was > 10 µM (inactive) and the GI50 (Malme-3M) was > 10 µM (inactive). For the same molecule, the GI50 (LOX IMVI) was > 10 µM (inactive), the GI50 (PC-3) was > 10 µM (inactive) and the GI50 (IGROV-1) was > 10 µM (inactive). For the same molecule, the GI50 (HOP-62) was > 10 µM (inactive), the GI50 (MDA-MB-435) was > 10 µM (inactive) and the GI50 (NCI-H226) was > 10 µM (inactive).
`CCCN1CCC(=O)N(CCC(F)(F)C(F)(F)C(F)(F)C(F)(F)C(F)(F)C(F)(F)F)C1=S` was tested, and the GI50 (UACC-62) was > 100 µM (inactive), the GI50 (SK-OV-3) was > 100 µM (inactive) and the GI50 (HCC 2998) was 94.6 µM (inactive). For the same molecule, the GI50 (UO-31) was > 100 µM (inactive), the GI50 (MDA-N) was > 100 µM (inactive) and the GI50 (SF-539) was > 100 µM (inactive). The GI50 (OVCAR-5) was > 100 µM (inactive), the GI50 (SNB-75) was > 100 µM (inactive) and the GI50 (SW-620) was > 100 µM (inactive). For the same molecule, the GI50 (ACHN) was > 100 µM (inactive), the GI50 (U-251) was > 100 µM (inactive) and the GI50 (Malme-3M) was > 100 µM (inactive). The GI50 (PC-3) was > 100 µM (inactive), the GI50 (IGROV-1) was > 100 µM (inactive) and the GI50 (HOP-62) was > 100 µM (inactive). For the same molecule, the GI50 (MDA-MB-435) was > 100 µM (inactive) and the GI50 (NCI-H226) was > 100 µM (inactive).
With `CSc1nc(=O)c2nc(-c3cccs3)c(-c3cccs3)nc2n1C` the GI50 (UACC-62) was 41.7 µM (inactive), the GI50 (SK-OV-3) was 26.8 µM (inactive) and the GI50 (HCC 2998) was > 100 µM (inactive). For the same molecule, the GI50 (UO-31) was 33.7 µM (inactive), the GI50 (MDA-N) was > 100 µM (inactive) and the GI50 (OVCAR-5) was 75.3 µM (inactive). For the same molecule, the GI50 (SNB-75) was 18.7 µM (inactive), the GI50 (SK-MEL-2) was 49.2 µM (inactive) and the GI50 (SW-620) was > 100 µM (inactive). The GI50 (ACHN) was 37.7 µM (inactive), the GI50 (U-251) was 28.2 µM (inactive) and the GI50 (Malme-3M) was 50.9 µM (inactive). For the same molecule, the GI50 (LOX IMVI) was 57.5 µM (inactive), the GI50 (PC-3) was 40.9 µM (inactive) and the GI50 (IGROV-1) was 43.5 µM (inactive). For the same molecule, the GI50 (HOP-62) was 20 µM (inactive) and the GI50 (MDA-MB-435) was > 100 µM (inactive).
